Assay results as given in US7135467B2, “HIV integrase inhibitors” (priority 2003, dated 2006).
pIC50: −log10 of the molar value.

molecular target: T1, HIV-integrase (recombinant integrase) (Human immunodeficiency virus type 1 group M subtype B, UniProt P12497); experiment: HIV-Integrase Inhibition Activity (SPA bead strand-transfer assay); type: biochemical; conditions: recombinant integrase on biotin labeled substrate DNA/SPA beads, P33 labeled target DNA; read-out: Activity (IC50 against HIV-integrase)
T1 construct: Recombinant integrase (0.26 ng) was incubated with the beads
Protocol: To evaluate in-vitro activity against HIV-integrase, 5 pmole of biotin labeled substrate DNA was bound to 100 μg of Streptavidin coated PVT SPA beads (Amersham Pharmacia Biotech). Recombinant integrase (0.26 ng) was incubated with the beads for 90 min at 37° C. Unbound enzyme was removed by washing the complex followed by addition of inhibitors and 0.1 fmol of P33 labeled target DNA. The reaction was stopped by adding EDTA to a final concentration of 10 mM. Samples were counted in TopCountNXT (Packard) and the CPM was used as a measure of integration. The reaction condition was as described in A. Engelman and R. Craigie, J. Virol. 69, 5908–5911 (1995). The sequences of substrate and target DNA were described in Nucleic Acid Research 22, 1121–1122 (1994). Activity equal to A refers to a compound having IC50=0.003 to 0.10 μM while B and C denote compounds the following IC50=0.1 to 1.0 μM and IC50≧1.0 μM respectively.

Compared with Cn1c(N2CCCCS2(=O)=O)nc(C(=O)NCc2ccc(F)cc2)c(O)c1=O [Compound 1, N-[(4-fluorophenyl)methyl]-1,6-dihydro-5-hydroxy-1-methyl-6-oxo-2-(tetrahydro-1,1-dioxido-2H-1,2-thiazin-2-yl)-4-pyrimidinecarboxamide], Cn1c(N2CCCCS2(=O)=O)nc(C(=O)NCCc2ccc(F)cc2)c(O)c1=O [Compound 16, N-[2-(4-fluorophenyl)ethyl]-1,6-dihydro-5-hydroxy-1-methyl-6-oxo-2-(tetrahydro-1,1-dioxido-2H-1,2-thiazin-2-yl)-4-pyrimidinecarboxamide] is lower in pIC50: 7.00 to 8.52 for the first, no more than 6.00 for the second. The first is the more potent here.

Cn1c(N2CCCCS2(=O)=O)nc(C(=O)NCc2ccc(Cl)c(Cl)c2)c(O)c1=O [Compound 2, N-[(3,4-dichlorophenyl)methyl]-1,6-dihydro-5-hydroxy-1-methyl-6-oxo-2-(tetrahydro-1,1-dioxido-2H-1,2-thiazin-2-yl)-4-pyrimidinecarboxamide] and Cn1c(N2CCCCS2(=O)=O)nc(C(=O)NCc2ccc(F)c(Cl)c2)c(O)c1=O [Compound 18, N-[(3-chloro-4-fluorophenyl)methyl]-1,6-dihydro-5-hydroxy-1-methyl-6-oxo-2-(tetrahydro-1,1-dioxido-2H-1,2-thiazin-2-yl)-4-pyrimidinecarboxamide] fall in the same range of pIC50: 7.00 to 8.52 for the first, 7.00 to 8.52 for the second.

Cn1c(N2CCCCS2(=O)=O)nc(C(=O)NCc2cccc(F)c2)c(O)c1=O [Compound 3, N-[(3-fluorophenyl)methyl]-1,6-dihydro-5-hydroxy-1-methyl-6-oxo-2-(tetrahydro-1,1-dioxido-2H-1,2-thiazin-2-yl)-4-pyrimidinecarboxamide] and Cn1c(N2CCCCS2(=O)=O)nc(C(=O)NCCc2cccc(F)c2)c(O)c1=O [Compound 21, N-[2-(3-fluorophenyl)ethyl]-1,6-dihydro-5-hydroxy-1-methyl-6-oxo-2-(tetrahydro-1,1-dioxido-2H-1,2-thiazin-2-yl)-4-pyrimidinecarboxamide] cannot be ordered by pIC50: 6.00 to 7.00 for the first, no more than 6.00 for the second.

First: Cn1c(N2CCCCS2(=O)=O)nc(C(=O)NCc2ccc(Cl)cc2)c(O)c1=O [Compound 4, N-[(4-chlorophenyl)methyl]-1,6-dihydro-5-hydroxy-1-methyl-6-oxo-2-(tetrahydro-1,1-dioxido-2H-1,2-thiazin-2-yl)-4-pyrimidinecarboxamide]
Second: Cn1c(N2CCCCS2(=O)=O)nc(C(=O)NCCc2ccc(Cl)cc2)c(O)c1=O [Compound 26, N-[2-(4-chlorophenyl)ethyl]-1,6-dihydro-5-hydroxy-1-methyl-6-oxo-2-(tetrahydro-1,1-dioxido-2H-1,2-thiazin-2-yl)-4-pyrimidinecarboxamide]
The pIC50 of the first is higher: 7.00 to 8.52 for the first, no more than 6.00 for the second.

Cn1c(N2CCCCS2(=O)=O)nc(C(=O)NCc2cccc(Cl)c2)c(O)c1=O [Compound 5, N-[(3-chlorophenyl)methyl]-1,6-dihydro-5-hydroxy-1-methyl-6-oxo-2-(tetrahydro-1,1-dioxido-2H-1,2-thiazin-2-yl)-4-pyrimidinecarboxamide] and Cc1cccc(CNC(=O)c2nc(N3CCCCS3(=O)=O)n(C)c(=O)c2O)c1 [Compound 9, 1,6-dihydro-5-hydroxy-1-methyl-N-[(3-methylphenyl)methyl]-6-oxo-2-(tetrahydro-1,1-dioxido-2H-1,2-thiazin-2-yl)-4-pyrimidinecarboxamide] fall in the same range of pIC50: 7.00 to 8.52 for the first, 7.00 to 8.52 for the second.

First: Cn1c(N2CCCCS2(=O)=O)nc(C(=O)NCCCc2ccc(F)cc2)c(O)c1=O [Compound 6, N-[3-(4-fluorophenyl)propyl]-1,6-dihydro-5-hydroxy-1-methyl-6-oxo-2-(tetrahydro-1,1-dioxido-2H-1,2-thiazin-2-yl)-4-pyrimidinecarboxamide]
Second: COc1ccc(CCNC(=O)c2nc(N3CCCCS3(=O)=O)n(C)c(=O)c2O)cc1 [Compound 27, 1,6-dihydro-5-hydroxy-N-[2-(4-methoxyphenyl)ethyl]-1-methyl-6-oxo-2-(tetrahydro-1,1-dioxido-2H-1,2-thiazin-2-yl)-4-pyrimidinecarboxamide]
The pIC50 of the first is higher: 7.00 to 8.52 for the first, no more than 6.00 for the second.

First: Cn1c(N2CCCCS2(=O)=O)nc(C(=O)NCCCc2ccc(Cl)c(Cl)c2)c(O)c1=O [Compound 7, N-[3-(3,4-dichlorophenyl)propyl]-1,6-dihydro-5-hydroxy-1-methyl-6-oxo-2-(tetrahydro-1,1-dioxido-2H-1,2-thiazin-2-yl)-4-pyrimidinecarboxamide]
Second: Cn1c(N2CCCCS2(=O)=O)nc(C(=O)NCc2cc(Cl)cc(Cl)c2)c(O)c1=O [Compound 12, N-[(3,5-dichlorophenyl)methyl]-1,6-dihydro-5-hydroxy-1-methyl-6-oxo-2-(tetrahydro-1,1-dioxido-2H-1,2-thiazin-2-yl)-4-pyrimidinecarboxamide]
The pIC50 of the first is lower: no more than 6.00 for the first, 7.00 to 8.52 for the second.

Cc1ccc(CNC(=O)c2nc(N3CCCCS3(=O)=O)n(C)c(=O)c2O)cc1 [Compound 8, 1,6-dihydro-5-hydroxy-1-methyl-N-[(4-methylphenyl)methyl]-6-oxo-2-(tetrahydro-1,1-dioxido-2H-1,2-thiazin-2-yl)-4-pyrimidinecarboxamide] and COc1ccc(CNC(=O)c2nc(N3CCCCS3(=O)=O)n(C)c(=O)c2O)cc1 [Compound 10, 1,6-dihydro-5-hydroxy-N-[(4-methoxyphenyl)methyl]-1-methyl-6-oxo-2-(tetrahydro-1,1-dioxido-2H-1,2-thiazin-2-yl)-4-pyrimidinecarboxamide] fall in the same range of pIC50: 7.00 to 8.52 for the first, 7.00 to 8.52 for the second.

First: COc1cccc(CNC(=O)c2nc(N3CCCCS3(=O)=O)n(C)c(=O)c2O)c1 [Compound 11, 1,6-dihydro-5-hydroxy-N-[(3-methoxyphenyl)methyl]-1-methyl-6-oxo-2-(tetrahydro-1,1-dioxido-2H-1,2-thiazin-2-yl)-4-pyrimidinecarboxamide]
Second: COc1ccccc1CNC(=O)c1nc(N2CCCCS2(=O)=O)n(C)c(=O)c1O [Compound 24, 1,6-dihydro-5-hydroxy-N-[(2-methoxyphenyl)methyl]-1-methyl-6-oxo-2-(tetrahydro-1,1-dioxido-2H-1,2-thiazin-2-yl)-4-pyrimidinecarboxamide]
The pIC50 of the first is lower: 6.00 to 7.00 for the first, 7.00 to 8.52 for the second. The second is the more potent here.

Cc1cc(CNC(=O)c2nc(N3CCCCS3(=O)=O)n(C)c(=O)c2O)ccc1F [Compound 13, N-[(4-fluoro-3-methylphenyl)methyl]-1,6-dihydro-5-hydroxy-1-methyl-6-oxo-2-(tetrahydro-1,1-dioxido-2H-1,2-thiazin-2-yl)-4-pyrimidinecarboxamide] and Cc1ccc(CNC(=O)c2nc(N3CCCCS3(=O)=O)n(C)c(=O)c2O)cc1F [Compound 14, N-[(3-fluoro-4-methylphenyl)methyl]-1,6-dihydro-5-hydroxy-1-methyl-6-oxo-2-(tetrahydro-1,1-dioxido-2H-1,2-thiazin-2-yl)-4-pyrimidinecarboxamide] fall in the same range of pIC50: 7.00 to 8.52 for the first, 7.00 to 8.52 for the second.

Cn1c(N2CCCCS2(=O)=O)nc(C(=O)NCc2ccc(F)c(F)c2)c(O)c1=O [Compound 15, N-[(3,4-difluorophenyl)methyl]-1,6-dihydro-5-hydroxy-1-methyl-6-oxo-2-(tetrahydro-1,1-dioxido-2H-1,2-thiazin-2-yl)-4-pyrimidinecarboxamide] and Cn1c(N2CCCCS2(=O)=O)nc(C(=O)NCc2ccc(F)c(C(F)(F)F)c2)c(O)c1=O [Compound 20, N-[[4-fluoro-3-(trifluoromethyl)phenyl]methyl]-1,6-dihydro-5-hydroxy-1-methyl-6-oxo-2-(tetrahydro-1,1-dioxido-2H-1,2-thiazin-2-yl)-4-pyrimidinecarboxamide] fall in the same range of pIC50: 7.00 to 8.52 for the first, 7.00 to 8.52 for the second.

First: Cn1c(N2CCCCS2(=O)=O)nc(C(=O)NCc2ccc(F)cc2F)c(O)c1=O [Compound 17, N-[(2,4-difluorophenyl)methyl]-1,6-dihydro-5-hydroxy-1-methyl-6-oxo-2-(tetrahydro-1,1-dioxido-2H-1,2-thiazin-2-yl)-4-pyrimidinecarboxamide]
Second: Cn1c(N2CCCCS2(=O)=O)nc(C(=O)NCc2ccccc2F)c(O)c1=O [Compound 28, N-[(2-fluorophenyl)methyl]-1,6-dihydro-5-hydroxy-1-methyl-6-oxo-2-(tetrahydro-1,1-dioxido-2H-1,2-thiazin-2-yl)-4-pyrimidinecarboxamide]
The pIC50 of the first is higher: 7.00 to 8.52 for the first, 6.00 to 7.00 for the second.

Cc1ccc(CNC(=O)c2nc(N3CCCCS3(=O)=O)n(C)c(=O)c2O)cc1C [Compound 19, N-[(3,4-dimethylphenyl)methyl]-1,6-dihydro-5-hydroxy-1-methyl-6-oxo-2-(tetrahydro-1,1-dioxido-2H-1,2-thiazin-2-yl)-4-pyrimidinecarboxamide] and Cc1ccc(CNC(=O)c2nc(N3CCCCS3(=O)=O)n(C)c(=O)c2O)o1 [Compound 23, 1,6-dihydro-5-hydroxy-1-methyl-N-[(5-methyl-2-furanyl)methyl]-6-oxo-2-(tetrahydro-1,1-dioxido-2H-1,2-thiazin-2-yl)-4-pyrimidinecarboxamide] fall in the same range of pIC50: 7.00 to 8.52 for the first, 7.00 to 8.52 for the second.

First: COc1ccc(CNC(=O)c2nc(N3CCCCS3(=O)=O)n(C)c(=O)c2O)c(OC)c1 [Compound 22, N-[(2,4-dimethoxyphenyl)methyl]-1,6-dihydro-5-hydroxy-1-methyl-6-oxo-2-(tetrahydro-1,1-dioxido-2H-1,2-thiazin-2-yl)-4-pyrimidinecarboxamide]
Second: Cn1c(N2CCCCS2(=O)=O)nc(C(=O)NCC(c2ccccc2)c2ccccc2)c(O)c1=O [Compound 25, N-(2,2-diphenylethyl)-1,6-dihydro-5-hydroxy-1-methyl-6-oxo-2-(tetrahydro-1,1-dioxido-2H-1,2-thiazin-2-yl)-4-pyrimidinecarboxamide]
The pIC50 of the first is higher: 7.00 to 8.52 for the first, no more than 6.00 for the second.
